Experimental data as given in a compilation of properties of binary mixtures (doi:10.1021/acs.jced.0c01028).

Assay: xn = mol fraction of the nth substance listed
Details: 81.5 kPa

CCCC[n+]1ccn(C)c1.N#C[S-] + CCCCC(C)O
x1 = 1
Details | speed of sound [m/s]
298.15 K | 1762
308.15 K | 1738
318.15 K | 1714
328.15 K | 1691
338.15 K | 1668

CCCCC(C)O (configuration not stated) + CCCC[n+]1ccn(C)c1.N#C[S-]
speed of sound [m/s]
Details | x2 = 0 | x2 = 0.1011 | x2 = 0.2003 | x2 = 0.2992 | x2 = 0.3988 | x2 = 0.4964 | x2 = 0.6029 | x2 = 0.6993 | x2 = 0.7996 | x2 = 0.8987
288.15 K | 1299 | – | 1397 | 1448 | 1497 | 1549 | 1601 | 1653 | – | 1748
298.15 K | – | 1316 | 1366 | – | 1469 | 1521 | 1574 | 1628 | 1673 | 1724
308.15 K | 1226 | 1283 | 1335 | 1389 | 1441 | 1494 | 1549 | 1603 | – | 1700
318.15 K | 1189 | – | 1304 | – | – | 1471 | 1530 | 1581 | 1632 | 1676
328.15 K | 1153 | – | – | 1331 | 1385 | 1441 | 1498 | 1554 | 1601 | 1653
338.15 K | 1117 | 1183 | – | 1302 | 1357 | – | 1474 | – | 1577 | 1630
